Where a name gives a salt, the structure may show the parent alone.

Results on 33 molecules are retold here after patent publication US20130324556A1, “Protease Activated Receptor 2 (PAR2) Antagonists” (priority 2011, published 2013).

One test concerns the target T1, human PAR2 receptor (Homo sapiens, UniProt P55085).
T1 construct: expressed in transfected cells; host or cells: 1321N1 cells
T1 sequence (P55085 26-397): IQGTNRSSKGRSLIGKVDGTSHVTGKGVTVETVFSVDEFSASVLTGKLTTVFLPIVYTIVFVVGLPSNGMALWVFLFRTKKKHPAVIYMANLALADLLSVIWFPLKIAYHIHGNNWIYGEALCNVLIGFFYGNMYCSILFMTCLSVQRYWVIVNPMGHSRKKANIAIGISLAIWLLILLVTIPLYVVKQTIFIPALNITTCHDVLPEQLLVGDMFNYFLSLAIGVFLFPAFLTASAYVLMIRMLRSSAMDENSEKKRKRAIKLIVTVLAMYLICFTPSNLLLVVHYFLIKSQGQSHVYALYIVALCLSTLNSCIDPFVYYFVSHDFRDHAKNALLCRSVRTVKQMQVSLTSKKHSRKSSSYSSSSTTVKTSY
The test can be described thus: PAR2 antagonist activity, calcium flux FLIPR assay (trypsin challenge). The class given is cell-based.
Details: not given
The method, then:
The PAR2 receptor couples through the Gq signaling pathway and results in activation of calcium mobilization. The functional activity of test compounds was routinely tested by measuring the ability of compounds to antagonize PAR2 (trypsin challenge) activity in a dose dependent manner, in 1321N1 cells transfected with the human PAR2 receptor, using a calcium flux Fluorescent Imaging Plate Reader FLIPR assay.
Briefly, test compounds were dissolved in DMSO to a concentration of 20 mM and stored in matrix screenmate racks. […] The compounds were then transferred to 384-well assay plates ready for use. […] The assay buffer used was HBSS buffer supplemented with 20 mM HEPES and 0.1% BSA (protease free), pH7.4. The loading/wash buffers were the same as the assay buffer.
Sub-cultivations were performed every 2-3 d. […] After washing, the cells were loaded with Fluo-4 AM dye (Molecular probes) at 2 μM containing 0.48 μg/mL pluronic acid for 60 min at 37° C. under 5% CO2.
A combined agonist/antagonist protocol was used to measure changes in intracellular calcium concentration. Compound (antagonist) was added to the cell plate using a Fluorometric Imaging Plate Reader (FLIPR) (Molecular Devices, Sunnyvale, Calif., USA). Basal fluorescence was recorded every second for 10 seconds prior to compound addition (10 μl) and fluorescence recorded every second for 1 min then every 6 seconds for a further 1 min. Trypsin (EC50 concentration) was then added using the FLIPR and fluorescence recorded as described above. Curve-fitting and parameter estimation were carried out using GraphPad Prism 4.0 (GraphPad Software Inc., San Diego, Calif.).
For orientation: Calcium flux is commonly read through the fluorescence of an indicator in the cells.
Usually IC50 stands for the concentration that gives 50% inhibition. `NCc1ccc(CNC(=O)N2CCC(Nc3ccccc3Cl)CC2)cc1` [Example 17, N-{[4-(Aminomethyl)phen-yl]methyl}-4-[(2-chlorophenyl)amino]piper-idine-1-carboxamide dihydrochloride]: the IC50 is less than 5 µM.

The test is the same for the next values; noted with them: 1321N1 cells transfected with the human PAR2 receptor; trypsin (EC50 concentration) challenge; calcium flux FLIPR; read-out: PAR2 IC50.
Take `NCc1ccc(CNC(=O)N2CCC(Cc3cccnc3)CC2)cc1` [Example 9, N-{[4-(Aminomethyl)phen-yl]methyl}-4-(pyridin-3-ylmethyl)piperidine-1-carboxamide]: the IC50 lay in the range of 20 to 50 µM.

Take `NCCCCCNC(=O)N1CCC(Cc2ccccc2)CC1` [Example 68, N-(5-Aminopentyl)-4-benzylpiperidine-1-carboxamide]: the IC50 lay in the range of 20 to 50 µM.

With `O=C(NCc1ccc2nc[nH]c2c1)N1CCC(Cc2ccccc2)C1` (stereo not drawn) [Example 60, 2,2,2-Trifluoroacetic acid; N-(1H-1,3-benzodiazol-5-ylmethyl)-3-benzylpyrrolidine-1-carboxamide], the IC50 lay within 5 to 20 µM.

Consider `NCc1ccc(CNC(=O)C2CCN(Cc3cccc(F)c3)CC2)cc1` [Example 23, N-{[4-(Aminomethyl)phen-yl]methyl}-1-[(3-fluorophenyl)methyl]piper-idine-4-carboxamide], for which the IC50 was 5 to 20 µM.

Take `NCc1ccc(CNC(=O)N2CCC(C(=O)N3CCCCC3)CC2)cc1` [Example 31, N-{[4-(Aminomethyl)phen-yl]methyl}-4-[(piperidin-1-yl)carbon-yl]piperidine-1-carboxamide hydrochloride]: the IC50 fell in the range of 50 to 100 µM.

Take `Cc1ccc(CC2CCN(C(=O)NCc3ccc(CN)cc3)CC2)cc1` [Example 7, 2,2,2-Trifluoroacetic acid; N-{[4-(aminomethyl)phenyl]methyl}-4-[(4-methylphenyl)methyl] piperidine-1-carboxamide]: the IC50 fell in the range of 5 to 20 µM.

For `CN(Cc1ccc(CN)cc1)C(=O)N1CCC(Cc2ccccc2)CC1` [Example 30, 2,2,2-Trifluoroacetic acid; N-{[4-(aminomethyl)phenyl]methyl}-4-benzyl-N-methylpiperidine-1-carboxamide], the IC50 is 50 to 100 µM.

On to `N=C(N)c1ccc(CNC(=O)N2CCC(c3ccccc3)C2)cc1` (stereo not drawn) [Example 41, N-[(4-Carbamimidoylphen-yl)methyl]-3-phenylpyrrolidine-1-carboxamide hydrochloride], for which the IC50 fell in the range of 5 to 20 µM.

`O=C(NCc1ccc(-c2ncc[nH]2)cc1)N1CCC(Cc2ccccc2)CC1` [Example 51, 4-Benzyl-N-{[4-(1H-imidazol-2-yl)phenyl]methyl}piperidine-1-carboxamide]: the IC50 was in the range of 20 to 50 µM.

Consider `NCc1ccc(CNC(=O)N2CCN(Cc3ccccc3)CC2)cc1` [Example 24, N-{[4-(Aminomethyl)phen-yl]methyl}-4-benzylpiperazine-1-carboxamide], for which the IC50 was 5 to 20 µM.

With `NCc1ccc(CNC(=O)N2CCC(CCc3ccccc3)CC2)cc1` [Example 22, N-{[4-(Aminomethyl)phen-yl]methyl}-4-(2-phenylethyl)piperidine-1-carboxamide], the IC50 was in the range of 20 to 50 µM.

As to `NCc1ccc(CNC(=O)N2CCN(c3ccccc3)CC2)cc1` [Example 27, N-{[4-(Aminomethyl)phen-yl]methyl}-4-phenyl piperazine-1-carboxamide dihydrochloride], the IC50 fell in the range of 20 to 50 µM.

For `N=C(N)c1ccc(CNC(=O)N2CCN(Cc3ccccc3)CC2)cc1` [Example 42, 4-Benzyl-N-[(4-carbamimidoylphenyl)meth-yl]piperazine-1-carboxamide dihydrochloride], the IC50 is less than 5 µM.

As to `O=C(NCc1ccc2nn[nH]c2c1)N1CCC(Cc2ccccc2)CC1` [Example 61, N-(1H-1,2,3-Benzotriazol-6-ylmethyl)-4-benzylpiperidine-1-carboxamide], the IC50 lay in the range of 50 to 100 µM.

Regarding `NCc1ccc(CNC(=O)N2CCN(C(=O)c3ccccc3)CC2)cc1` [Example 26, 2,2,2-Trifluoroacetic acid; N-{[4-(aminomethyl)phenyl]methyl}-4-benzoylpiperazine-1-carboxamide], the IC50 fell in the range of 20 to 50 µM.

In the case of `NCc1ccc(CNC(=O)N2CCC(Cc3ccncc3)CC2)cc1` [Example 10, N-{[4-(Aminomethyl)phen-yl]methyl}-4-(pyridin-4-ylmethyl)piperidine-1-carboxamide], the IC50 was 5 to 20 µM.

On to `COc1ccc(CC2CCN(C(=O)NCc3ccc4nc[nH]c4c3)CC2)cc1` [Example 56, N-(1H-1,3-Benzodiazol-6-ylmethyl)-4-[(4-methoxyphenyl)methyl] piperidine-1-carboxamide], for which the IC50 was in the range of 20 to 50 µM.

For the molecule `CNC(=N)c1ccc(CNC(=O)N2CCC(Cc3ccccc3)CC2)cc1` [Example 37, 2,2,2-Trifluoroacetic acid; 4-benzyl-N-{[4-(N-methylcarbamimidoyl)phen-yl]methyl} piperidine-1-carboxamide], the IC50 was 20 to 50 µM.

Consider `NCc1ccc(CNC(=O)N2CCCC(Cc3ccccc3)C2)cc1` (stereo not drawn) [Example 21, 2,2,2-Trifluoroacetic acid; N-{[4-(aminomethyl)phenyl]methyl}-3-benzylpiperidine-1-carboxamide], for which the IC50 was 50 to 100 µM.

Consider `NCc1ccc(CNC(=O)N2CCC(Sc3ccccc3)CC2)cc1` [Example 16, N-{[4-(Aminomethyl)phen-yl]methyl}-4-(phenylsulfanyl)piperidine-1-carboxamide hydrochloride], for which the IC50 lay within 5 to 20 µM.

For the molecule `NCc1ccc(CNC(=O)N2CCC(Cc3ccccc3)CC2)cc1F` [Example 35, N-{[4-(Aminomethyl)-3-fluorophenyl]methyl}-4-benzylpiperidine-1-carboxamide], the IC50 is less than 5 µM.

For the molecule `O=C(NCc1ccc2c(c1)CNC2)N1CCC(Cc2ccccc2)CC1` [Example 64, 4-Benzyl-N-(2,3-dihydro-1H-isoindol-5-ylmeth-yl)piperidine-1-carboxamide], the IC50 was 5 to 20 µM.

In the case of `NCc1ccc(CNC(=O)N2CCN(Cc3ccccc3Cl)CC2)cc1` [Example 25, N-{[4-(Aminomethyl)phen-yl]methyl]-4-[(2-chlorophenyl)meth-yl]piperazine-1-carboxamide di-hydrochloride], the concentration for half-maximal inhibition (IC50) lay in the range of 5 to 20 µM.

For `NCc1ccc(CNC(=O)N2CCC(Oc3ccc(Cl)cc3)CC2)cc1` [Example 15, N-{[4-(Aminomethyl)phen-yl]methyl}-4-(4-chlorophenoxy)piperidine-1-carboxamide hydrochloride], the IC50 fell in the range of 20 to 50 µM.

`O=C(NCc1cc2cnccc2[nH]1)N1CCC(Cc2ccccc2)CC1` [Example 53, 4-Benzyl-N-{1H-pyrrolo[3,2-c]pyridin-2-ylmethyl}piperidine-1-carboxamide]: the IC50 lay in the range of 20 to 50 µM.

On to `O=C(NCc1ccc2nc[nH]c2c1)N1CCC(Cc2ccncc2)CC1` [Example 57, N-(1H-1,3-Benzodiazol-6-ylmethyl)-4-(pyridin-4-ylmethyl)piperidine-1-carboxamide], for which the half-maximal inhibitory concentration (IC50) lay in the range of 20 to 50 µM.

Consider `NCc1ccc(CNC(=O)N2CCC(c3nc4ccccc4o3)CC2)cc1` [Example 34, N-{[4-(Aminomethyl)phen-yl]methyl}-4-(1,3-benzoxazol-2-yl)pipe-ridine-1-carboxamide], for which the IC50 is less than 5 µM.

For the molecule `NCc1ccc(CNC(=O)N2CCC(C(=O)N3CCc4ccccc43)CC2)cc1` [Example 32, 2,2,2-Trifluoroacetic acid; N-{[4-(aminomethyl)phenyl]methyl}-4-[(2,3-dihydro-1H-indol-1-yl)carbonyl]piper-idine-1-carboxamide], the IC50 lay within 50 to 100 µM.

As to `N=C(N)c1ccc(CNC(=O)N2CCC(Cc3cccc(O)c3)CC2)cc1` [Example 47, N-[(4-Carbamimidoylphen-yl)methyl]-4-[(3-hydroxyphenyl)meth-yl]piperidine-1-carboxamide hydrochloride], the IC50 is less than 5 µM.

Regarding `COc1ccc(CC2CCN(C(=O)NCc3ccc(CN)cc3)CC2)cc1` [Example 3, 2,2,2-Trifluoroacetic acid; N-{[4-(aminomethyl)phenyl]methyl}-4-[(4-methoxyphenyl)methyl] piperidine-1-carboxamide], the IC50 is less than 5 µM.

Consider `NCc1ccc(CNC(=O)N2CCC(Cc3ccc(F)cc3)CC2)cc1` [Example 5, N-{[4-(Aminomethyl)phen-yl]methyl}-4-[(4-fluorophenyl)methyl]piper-idine-1-carboxamide hydrochloride], for which the IC50 was less than 5 µM.

For `NCc1ccc(CNC(=O)N2CCC(c3ccccc3)CC2)cc1` [Example 20, N-{[4-(Aminomethyl)phen-yl]methyl}-4-phenylpiperidine-1-carboxamide hydrochloride], the IC50 lay within 20 to 50 µM.
